Reference: ChEMBL document CHEMBL1201862, “PubChem BioAssay data set” (2004)
Values joined by “and” are separate entries in the source; they are usually repeats but may differ in a detail not shown here. Equal entries are not always repeated.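 96-well plates; 48 h exposure; 5 concentrations. Endpoints by linear interpolation between flanking doses. Not reached: highest tested concentration assigned. GI50 is the concentration that inhibits growth by half.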 Active and inactive are the calls of the source. No stated cut-off is given here; in the data, active = GI50 up to about 1.1 µM and inactive = higher.

How the values were obtained:
Experiment in all cases: NCI-60 cell line screen, 48 h
CCRF-CEM = tested on: CCRF-CEM
HL-60 = tested on: HL-60
CAKI-1 = tested on: CAKI-1
HCT-15 = tested on: HCT-15
NCI-H23 = tested on: NCI-H23
SNB-19 = tested on: SNB-19
PC-3 = tested on: PC-3
COLO 205 = tested on: COLO 205
A549 = tested on: A549
NCI/ADR-RES = tested on: NCI/ADR-RES
SK-MEL-28 = tested on: SK-MEL-28
UACC-257 = tested on: UACC-257
BT-549 = tested on: BT-549
RPMI-8226 = tested on: RPMI-8226
SK-MEL-5 = tested on: SK-MEL-5
HCC 2998 = tested on: HCC 2998
Hs-578T = tested on: Hs-578T
NCI-H460 = tested on: NCI-H460
OVCAR-4 = tested on: OVCAR-4
SF-295 = tested on: SF-295

Measured: GI50

CCC1(COC(NC(=O)c2ccccc2)(C(F)(F)F)C(F)(F)F)COC1
inactive: CCRF-CEM > 100 µM | HL-60 > 100 µM | CAKI-1 > 100 µM | NCI-H23 > 100 µM | SNB-19 > 100 µM | PC-3 > 100 µM | COLO 205 > 100 µM | A549 > 100 µM | NCI/ADR-RES > 100 µM | SK-MEL-28 > 100 µM | UACC-257 > 100 µM | BT-549 > 100 µM | RPMI-8226 > 100 µM | SK-MEL-5 > 100 µM | HCC 2998 > 100 µM | Hs-578T > 100 µM
> 100 µM: HCT-15

COc1ccc2[nH]cc([C@@H]3C4CCC(C4)[C@H]3NCc3cccc(CN[C@H]4C5CCC(C5)[C@@H]4c4c[nH]c5ccc(OC)cc45)c3)c2c1
0.791 µM and 0.998 µM: HCT-15
inactive: OVCAR-4 1.37 µM and 1.32 µM | CAKI-1 1.6 µM and 1.79 µM | NCI-H23 1.75 µM and 1.53 µM | SF-295 1.45 µM and 1.66 µM | SNB-19 1.53 µM and 1.65 µM | PC-3 1.29 µM and 1.46 µM | A549 1.46 µM and 1.61 µM | NCI/ADR-RES 1.55 µM and 1.68 µM | UACC-257 1.38 µM and 1.64 µM | BT-549 1.69 µM and 1.62 µM | SK-MEL-5 1.62 µM and 1.55 µM | Hs-578T 1.71 µM and 1.5 µM
active: CCRF-CEM 366 nM and 352 nM | HL-60 214 nM and 191 nM | NCI-H460 340 nM and 237 nM | COLO 205 401 nM and 577 nM | RPMI-8226 531 nM and 369 nM | HCC 2998 339 nM and 256 nM

COc1ccc(-c2nnc3n(Cc4ccccc4)c4ccccc4n3c2=O)cc1
inactive: CCRF-CEM > 100 µM | HL-60 > 100 µM | NCI-H460 33.5 µM | OVCAR-4 6.01 µM | CAKI-1 13.9 µM | NCI-H23 31.3 µM | SF-295 15.9 µM | SNB-19 23.2 µM | PC-3 5.92 µM | COLO 205 > 100 µM | A549 45 µM | NCI/ADR-RES 55.8 µM | SK-MEL-28 36.4 µM | UACC-257 37.4 µM | BT-549 > 100 µM | SK-MEL-5 53.5 µM | HCC 2998 > 100 µM | Hs-578T 22.1 µM
> 100 µM: HCT-15

Cc1cccc(C[C@@]2(SCc3ccccc3)C(C)(C)[C@@H]3CC[C@@]2(C)C3)n1
13.8 µM: HCT-15
inactive: CCRF-CEM 12.9 µM | HL-60 13.3 µM | NCI-H460 15.6 µM | CAKI-1 16.7 µM | NCI-H23 13.9 µM | SF-295 14 µM | SNB-19 16.3 µM | PC-3 20 µM | COLO 205 15.6 µM | A549 21.9 µM | NCI/ADR-RES 13.8 µM | SK-MEL-28 19.5 µM | UACC-257 14.1 µM | BT-549 20 µM | RPMI-8226 11.8 µM | SK-MEL-5 15.9 µM | HCC 2998 15.4 µM | Hs-578T 19.7 µM

Cc1ccc(/C=N/NC2=NCCN2)s1
> 100 µM: HCT-15
inactive: HL-60 > 100 µM | OVCAR-4 > 100 µM | CAKI-1 > 100 µM | NCI-H23 > 100 µM | SF-295 > 100 µM | SNB-19 > 100 µM | PC-3 > 100 µM | COLO 205 > 100 µM | A549 > 100 µM | NCI/ADR-RES > 100 µM | SK-MEL-28 > 100 µM | UACC-257 > 100 µM | BT-549 23.3 µM | RPMI-8226 > 100 µM | SK-MEL-5 > 100 µM | HCC 2998 > 100 µM | Hs-578T > 100 µM

O=c1[nH][nH]c(=O)n1Cc1ccccc1
inactive: CCRF-CEM > 100 µM | HL-60 > 100 µM | NCI-H460 > 100 µM | OVCAR-4 > 100 µM | CAKI-1 > 100 µM | NCI-H23 > 100 µM | SNB-19 > 100 µM | PC-3 > 100 µM | COLO 205 > 100 µM | A549 > 100 µM | NCI/ADR-RES > 100 µM | SK-MEL-28 > 100 µM | UACC-257 > 100 µM | BT-549 > 100 µM | RPMI-8226 > 100 µM | SK-MEL-5 > 100 µM | HCC 2998 > 100 µM | Hs-578T > 100 µM
> 100 µM: HCT-15

CC[C@H]1C=CCC[C@@]2(C[C@@H]3CC[C@H]4[C@H](C(=O)OCCCCCCCCCCCCCCCC(=O)N(CCCN)C[C@@H](O)CCN)[C@]5(CCC[C@@H](C)O5)NC(=[N+]34)N2)O1
inactive: NCI-H23 1.34 µM | SF-295 1.63 µM | SNB-19 1.21 µM | NCI/ADR-RES 1.63 µM | SK-MEL-28 1.28 µM | BT-549 1.71 µM | Hs-578T 1.59 µM
active: HL-60 0.345 µM | NCI-H460 0.52 µM | OVCAR-4 0.863 µM | CAKI-1 0.532 µM | PC-3 0.7 µM | COLO 205 0.342 µM | A549 0.48 µM | UACC-257 0.604 µM | RPMI-8226 0.177 µM | SK-MEL-5 0.268 µM | HCC 2998 0.575 µM
0.723 µM: HCT-15
